According to US20220024882A1, “NOVEL TUMOR ANTIGEN BINDING AGENTS AND USES THEREOF” (ITM Isotopen Technologien München AG, priority 2018, published 2022):

Key:
[1] = Radiolytic stability; type: physicochemical; conditions: 250 MBq/500 μL saline, room temperature, with or without L-ascorbic acid
Procedure: Radiolytic stability over time was assessed for Ibu-sPSMA in three independent experiments. For this purpose, Ibu-sPSMA was labeled with ^177Lu in a volume of 120 μL at a specific activity of 50 MBq/nmol with or without the addition of L-ascorbic acid (3 mg). After quality control using HPLC (t=0, radiochemical purity ≥98%), the labeling solutions were diluted with saline to 250 MBq/500 μL and incubated at room temperature. The radioligand's integrity was determined by HPLC after 1 h, 4 h and 24 h incubation time as previously reported (Siwowska et al., Mol. Pharmaceutical 2017, 14, (2), 523-532). The HPLC chromatograms were analyzed by integration of the peaks representing the radiolabeled product, the released ^177Lu as well as degradation products of unknown structure (FIG. 15). A quantitative assessment was performed by expressing the peak area of the intact product as percentage of the sum of integrated peak areas of the entire chromatogram.

[2] = system: PC-3 PIP/flu tumor-bearing mice; experiment: Biodistribution study in PC-3 PIP/flu tumor-bearing mice; type: in vivo, athymic nude Balb/c mice; conditions: for Blood / Bone / Heart / Intestines / Kidneys / Liver / Lung / Muscle / Salivary glands / Spleen / Stomach / Tumor-to-blood / Tumor-to-kidney / Tumor-to-liver: PC-3 PIP/flu tumor-bearing mice; for PC-3 flu Tumor: PSMA-negative tumor xenograft; for PC-3 flu Tumor / PC-3 PIP Tumor: mice; for PC-3 PIP Tumor: PSMA-positive tumor xenograft
[3] = n-Octanol/PBS distribution coefficient (log D); type: physicochemical
Procedure: The n-octanol/PBS distribution coefficient of the five exemplified PSMA-binding agents ^177Lu-Ibu-PSMA, ^177Lu-Ibu-Dα-PSMA, ^177Lu-Ibu-Dβ-PSMA, ^177Lu-Ibu-N-PSMA and ^177Lu-Ibu-DAB-PSMA in a n-octanol/PBS system was performed in a similar manner as previously reported (Benesova, M.; Umbricht, C. A.; Schibli, R.; Müller, C. Albumin-binding PSMA ligands: optimization of the tissue distribution profile. Mol Pharm 2018, 15, (3), 934-946).

CC(C)Cc1ccc(C(C)C(=O)NCC[C@H](NC(=O)CN2CCN(CC(=O)O)CCN(CC(=O)O)CCN(CC(=O)O)CC2)C(=O)NCC2CCC(C(=O)N[C@@H](Cc3ccc4ccccc4c3)C(=O)NCCCC[C@H](NC(=O)N[C@@H](CCC(=O)O)C(=O)O)C(=O)O)CC2)cc1 (stereo partly drawn) [^177Lu-Ibu-sPSMA, metal not drawn]
radiolytic stability (percentage of intact radioligand up to 24 h) [1]: significantly more stable than ^177Lu-PSMA-617 and all other ibuprofen-derivatized PSMA radioligands | Blood ([2]; 1 h p.i.): 29±4 % IA/g | Bone ([2]; 1 h p.i.): 3.3 ± 0.4 % IA/g | Heart ([2]; 1 h p.i.): 9.3 ± 1.5 % IA/g | Intestines ([2]; 1 h p.i.): 2.9 ± 0.3 % IA/g | Kidneys ([2]; 1 h p.i.): 114±15 % IA/g | Liver ([2]; 1 h p.i.): 17±4 % IA/g | Lung ([2]; 1 h p.i.): 17 ± 3 % IA/g | Muscle ([2]; 1 h p.i.): 3.1 ± 0.7 % IA/g | Salivary glands ([2]; 1 h p.i.): 6.6 ± 0.5 % IA/g | Spleen ([2]; 1 h p.i.): 5.8 ± 1.2 % IA/g | Stomach ([2]; 1 h p.i.): 2.6 ± 0.5 % IA/g | Tumor-to-blood ([2]; 1 h p.i.): 2.2 ± 0.1 | Tumor-to-kidney ([2]; 1 h p.i.): 0.56±0.09 | Tumor-to-liver ([2]; 1 h p.i.): 3.7 ± 0.5 | PC-3 flu Tumor ([2]; 1 h p.i.): 5.1 ± 0.7 % IA/g | PC-3 PIP Tumor ([2]; 1 h p.i.): 63±8 % IA/g | Blood ([2]; 4 h p.i.): 7.2 ± 0.7 % IA/g | Bone ([2]; 4 h p.i.): 1.1 ± 0.2 % IA/g | Heart ([2]; 4 h p.i.): 2.4 ± 0.2 % IA/g | Intestines ([2]; 4 h p.i.): 1.1 ± 0.2 % IA/g | Kidneys ([2]; 4 h p.i.): 28 ± 2 % IA/g | Liver ([2]; 4 h p.i.): 7.2±0.5 % IA/g | Lung ([2]; 4 h p.i.): 4.9 ± 0.7 % IA/g | Muscle ([2]; 4 h p.i.): 0.84 ± 0.14 % IA/g | Salivary glands ([2]; 4 h p.i.): 1.9 ± 0.2 % IA/g | Spleen ([2]; 4 h p.i.): 2.1 ± 0.3 % IA/g | Stomach ([2]; 4 h p.i.): 1.3 ± 0.9 % IA/g | Tumor-to-blood ([2]; 4 h p.i.): 14 ± 3 | Tumor-to-kidney ([2]; 4 h p.i.): 3.6 ± 0.2 | Tumor-to-liver ([2]; 4 h p.i.): 14 ± 2 | PC-3 flu Tumor ([2]; 4 h p.i.): 2.0 ± 0.3 % IA/g | PC-3 PIP Tumor ([2]; 4 h p.i.): 99 ± 7 % IA/g | Blood ([2]; 24 h p.i.): 0.76 ± 0.07 % IA/g | Bone ([2]; 24 h p.i.): 0.27 ± 0.04 % IA/g | Heart ([2]; 24 h p.i.): 0.39 ± 0.04 % IA/g | Intestines ([2]; 24 h p.i.): 0.31 ± 0.07 % IA/g | Kidneys ([2]; 24 h p.i.): 10 ± 2 % IA/g | Liver ([2]; 24 h p.i.): 0.81 ± 0.09 % IA/g | Lung ([2]; 24 h p.i.): 0.79 ± 0.07 % IA/g | Muscle ([2]; 24 h p.i.): 0.14 ± 0.02 % IA/g | Salivary glands ([2]; 24 h p.i.): 0.37 ± 0.05 % IA/g | Spleen ([2]; 24 h p.i.): 0.72 ± 0.15 % IA/g | Stomach ([2]; 24 h p.i.): 0.50 ± 0.19 % IA/g | Tumor-to-blood ([2]; 24 h p.i.): 173 ± 18 | Tumor-to-kidney ([2]; 24 h p.i.): 13 ± 2 | Tumor-to-liver ([2]; 24 h p.i.): 163 ± 16 | PC-3 flu Tumor ([2]; 24 h p.i.): 0.66 ± 0.07 % IA/g | PC-3 PIP Tumor ([2]; 24 h p.i.): 132±15 % IA/g | Blood ([2]; 96 h p.i.): 0.27 ± 0.02 % IA/g | Bone ([2]; 96 h p.i.): 0.08 ± 0.01 % IA/g | Heart ([2]; 96 h p.i.): 0.12 ± 0.01 % IA/g | Intestines ([2]; 96 h p.i.): 0.13 ± 0.03 % IA/g | Kidneys ([2]; 96 h p.i.): 2.3 ± 0.3 % IA/g | Liver ([2]; 96 h p.i.): 0.22 ± 0.02 % IA/g | Lung ([2]; 96 h p.i.): 0.25 ± 0.03 % IA/g | Muscle ([2]; 96 h p.i.): 0.04 ± 0.02 % IA/g | Salivary glands ([2]; 96 h p.i.): 0.11 ± 0.02 % IA/g | Spleen ([2]; 96 h p.i.): 0.22 ± 0.03 % IA/g | Stomach ([2]; 96 h p.i.): 0.73 ± 0.82 % IA/g | Tumor-to-blood ([2]; 96 h p.i.): 210 ± 35 | Tumor-to-kidney ([2]; 96 h p.i.): 25 ± 2 | Tumor-to-liver ([2]; 96 h p.i.): 263 ± 42 | PC-3 flu Tumor ([2]; 96 h p.i.): 0.15 ± 0.02 % IA/g | PC-3 PIP Tumor ([2]; 96 h p.i.): 57±9 % IA/g | logD [3]: -2.43 ± 0.01
